Assay results: paper PMC12195777, “Improved Bioavailability of Stilbenes from Cajanus cajan (L.) Millsp. Leaves Achieved by Hydroxypropyl-β-Cyclodextrin Inclusion: Preparation, Characterization and Pharmacokinetic Assessment” (Molecules, 2025)

Tests used:
[1] = Tissue distribution study in rats after oral administration; assay type: in vivo; conditions: oral CCMLE or inclusion complex, heart, liver, spleen, lungs, kidneys, brain
Procedure: The tissue distribution study followed the same experimental grouping and dosing protocols described in Section 3.12. Thirty minutes after dosing, the rats were euthanized and their tissues (including their heart, liver, spleen, lungs, kidneys and brain) were immediately collected. Each tissue was rinsed with a 0.9% NaCl solution, gently dried with filter paper, weighed and stored at −80 °C until analysis.
For sample preparation, 0.2 g of each tissue was homogenized in 0.5 mL of a 0.9% NaCl solution using a high-throughput tissue grinder (Jingxin, Shanghai, China). Next, 300 μL of the tissue homogenate was mixed with 50 μL of a CHL solution and 850 μL of methanol, vortexed for 3 min and centrifuged at 13,000 rpm for 10 min at 4 °C. Then 10 μL of the supernatant was injected into the UPLC-QqQ-MS/MS system for analysis.

[2] = In vivo pharmacokinetic study in rats after oral administration (UPLC-QqQ-MS/MS of plasma); parameters: species or system SD rats; conditions: for AUC(0-inf) / AUC(0-t) / Cmax / Tmax / half-life: male, SD, rat, plasma, n = 6; for relative bioavailability / time at which peak plasma concentration (Cmax) was reached: oral; for relative bioavailability: from the inclusion complex, using CCMLE as a reference; for time at which peak plasma concentration (Cmax) was reached: post-administration (Figure 6)
Procedure: Healthy male SD rats weighing 200 ± 20 g were housed in a specific pathogen-free (SPF) facility under controlled conditions (24 ± 1 °C, 50 ± 10% relative humidity) with a 12 h light/dark cycle. The animals were free to access purified water and a standard laboratory diet for a 1-week acclimatization period. After acclimatization, the rats were randomly divided into three groups (n = 6 per group): the control group (con), CCMLE group and stilbene/HP-β-CD inclusion complex group. The CCMLE group received an oral dose of 232 mg/kg CCMLE, while the stilbene/HP-β-CD inclusion complex group received 2.1 g/kg of the inclusion complex by oral gavage, with both containing the same amount of stilbenes. All animal experiments were performed in accordance with the National Institutes of Health Guide for the Care and Use of Laboratory Animals (NIH Publication No. 85-23, revised in 1996). The study protocol was approved by the Animal Care and Use Committee of Zhejiang University of Technology (approval number MGS20231227194).
Blood samples (approximately 300 μL) were collected via the retro-orbital venous plexus before dosing and at the following post-dose times of 5 min, 15 min, 30 min, 1 h, 1.5 h, 2 h, 4 h, 6 h, 8 h, 12 h and 24 h. Each sample was placed in an EDTA anticoagulation tube to prevent coagulation. The tubes were then centrifuged at 3500 rpm for 10 min. The upper layer of supernatant (plasma) was carefully collected and stored at −80 °C until further analysis.
The plasma samples stored at −80 °C were thawed at room temperature prior to processing. For each analysis, 100 μL of the plasma sample was accurately transferred into a centrifuge tube, followed by the addition of 40 μL of a chloramphenicol (CHL) solution (1 mg/mL) used as an internal standard (IS) and 260 μL methanol. The mixture was vortexed for 3 min to ensure thorough homogenisation and then centrifuged at 13,000 rpm for 10 min at 4 °C to precipitate proteins and other insoluble components. For analysis, 10 μL of the supernatant was injected into a ultra-high-performance liquid chromatography–triple-quadrupole tandem mass spectrometry (UPLC-QqQ-MS/MS) system.
The bioavailabilities of three stilbenes (LLC, CSA and MPA) in CCMLE and the stilbene/HP-β-CD inclusion complex were analyzed using a Waters Xevo TQ-S micro-mass spectrometry system (Waters, Milford, MA, USA) coupled to a Waters H-Class UPLC system. Chromatographic separation was performed on a Waters H-Class UPLC system equipped with a Welch Ultimate® UHPLC LP-C18 column (Waters, Milford, MA, USA, 2.1 × 50 mm, 1.8 μm) at 30 °C. The injection volume was 10 μL. The mobile phase consisted of ultrapure water (A) and acetonitrile (B) with a flow rate of 0.3 mL/min and an elution gradient programme as follows: 0–0.2 min, 90% A; 0.2–1.5 min, 90–5% A; 1.5–3.5 min, 5% A; and 3.5–5 min, 5–90% A.
Mass spectrometric analysis was performed on a Waters Xevo TQ-S micro system using electrospray ionization in the negative mode (ESI^−). The capillary voltage was 2.71 kV, and the ion source temperature was 150 °C. Nitrogen was used as the desolventizing gas and the cone pore gas, and argon was used as the collision gas. Data acquisition was performed in the multiple-reaction-monitoring (MRM) mode for all analytes.
The relative bioavailability of CSA, LLC and MPA in the stilbene/HP-β-CD inclusion complex was calculated using Equation (8), with CCMLE used as a reference:(8) Frel=AUCstilbenes/HP−β−CD/AUCCCMLE·DCCMLE/Dstilbenes/HP−β−CD·100% where AUCstilbenes/HP-β-CD and AUCCCMLE represent the areas under the blood concentration–time curve, and Dstilbenes/HP-β-CD and DCCMLE represent the orally administered dose (mg/kg).
DAS 2.0 software was used to calculate the pharmacokinetic parameters, including the area under the plasma concentration–time curve (AUC), maximum plasma concentration (Cmax), time to reach Cmax (tmax) and elimination half-life (t1/2), using a non-compartmental model. […]

[3] = quoted without reference; cited from earlier work
[4] = oral stilbene/HP-β-CD inclusion complex 2.1 g/kg

## COc1cc(/C=C/c2ccccc2)c(C(=O)O)c(O)c1CC=C(C)C [CSA, cajaninstilbene acid]
[1]
  tissue-specific accumulation: predominately concentrated in the liver
[2]; oral CCMLE 232 mg/kg
  AUC(0-inf): 170 ± 66 ng·h/mL
  AUC(0-t): 120 ± 41 ng·h/mL
  Cmax: 48 ng/mL
  Tmax: 18 ± 6 min
  half-life: 660 ± 336 min
[2]; [4]
  AUC(0-inf): 470 ± 160 ng·h/mL
  AUC(0-t): 240 ± 82 ng·h/mL
  Cmax: 140 ± 60 ng/mL
  Tmax: 18 ± 6 min
  half-life: 780 ± 594 min
[2]
  relative bioavailability: 198%
  time at which peak plasma concentration (Cmax) was reached: 15 min

## Oc1ccc(/C=C/c2cc(O)cc(O)c2)cc1 [resveratrol]
[3]
  pKa of phenolic hydroxyl groups: 9.5–10

## COc1cc(O)cc(/C=C/c2ccccc2)c1CC=C(C)C [LLC, longistyle C]
[1]
  tissue-specific accumulation: higher concentrations in the heart and lungs
[2]; oral CCMLE 232 mg/kg
  AUC(0-inf): 10 ± 9.3 ng·h/mL
  AUC(0-t): 5.8 ± 2.9 ng·h/mL
  Cmax: 0.7 ± 0.5 ng/mL
  Tmax: 18 ± 6 min
  half-life: 840 ± 522 min
[2]; [4]
  AUC(0-inf): 12 ± 6.7 ng·h/mL
  AUC(0-t): 10 ± 6.7 ng·h/mL
  Cmax: 4.5 ± 2 ng/mL
  Tmax: 30 min
  half-life: 360 min
[2]
  relative bioavailability: 177%

## COc1cc(O)c(C(=O)O)c(/C=C/c2ccccc2)c1 [MPA, 4-O-methylpinosylvic acid]
[1]
  tissue-specific accumulation: relatively higher levels in the liver, lungs and kidneys
[2]; oral CCMLE 232 mg/kg
  AUC(0-inf): 580 ± 170 ng·h/mL
  AUC(0-t): 560 ± 160 ng·h/mL
  Cmax: 230 ± 60 ng/mL
  Tmax: 24 ± 18 min
  half-life: 330 ± 102 min
[2]; [4]
  AUC(0-inf): 803 ± 140 ng·h/mL
  AUC(0-t): 740 ± 100 ng·h/mL
  Cmax: 440 ± 130 ng/mL
  Tmax: 18 ± 6 min
  half-life: 540 ± 246 min
[2]
  relative bioavailability: 131%
  time at which peak plasma concentration (Cmax) was reached: 15 min
